From PubChem BioAssay (NCI)
Several values for one entry are separate records, joined by “and”; a condition that tells them apart may be missing. Equal entries are not always repeated.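 These data come from cells grown in 96-well plates and exposed to compound for 48 hours at five concentrations. Abbreviation: GI50, concentration required for 50% inhibition of growth. At the TGI there is no net growth.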

Assays:
Assay in all cases: inhibition of tumour cell growth, NCI panel, 48 h
HOP-62 NSCLC = tested on: HOP-62 NSCLC
HT29 colon = tested on: HT29 colon
IGROV1 ovarian = tested on: IGROV1 ovarian
K-562 leukemia = tested on: K-562 leukemia
M14 melanoma = tested on: M14 melanoma
NCI-H522 lung = tested on: NCI-H522 lung
OVCAR-3 ovarian = tested on: OVCAR-3 ovarian
OVCAR-4 ovarian = tested on: OVCAR-4 ovarian
PC-3 prostate = tested on: PC-3 prostate
SK-MEL-28 melanoma = tested on: SK-MEL-28 melanoma

| SMILES | GI50 (HOP-62 NSCLC) | TGI (HOP-62 NSCLC) | GI50 (HT29 colon) | TGI (HT29 colon) | GI50 (IGROV1 ovarian) | TGI (IGROV1 ovarian) | GI50 (K-562 leukemia) | TGI (K-562 leukemia) | GI50 (M14 melanoma) | TGI (M14 melanoma) | GI50 (NCI-H522 lung) | TGI (NCI-H522 lung) | GI50 (OVCAR-3 ovarian) | TGI (OVCAR-3 ovarian) | GI50 (OVCAR-4 ovarian) | TGI (OVCAR-4 ovarian) | GI50 (PC-3 prostate) | TGI (PC-3 prostate) | GI50 (SK-MEL-28 melanoma) | TGI (SK-MEL-28 melanoma) |
| --- | --- | --- | --- | --- | --- | --- | --- | --- | --- | --- | --- | --- | --- | --- | --- | --- | --- | --- | --- | --- |
| CC1=C/C=C/C(=O)O[C@@H]([C@H](C)[C@H](O)[C@@H](C)NC(=O)C(C)C)[C@H](C)/C=C/C(C)=C/[C@H]2C=CCC[C@@]2(C)\C=C\1 | 2.13 µM and 4.68 µM | 12.5 µM | 0.233 µM and 0.0595 µM | 6.85 µM | 0.603 µM and 0.189 µM | 10.7 µM | 0.559 µM and 0.565 µM | 36.9 µM | 0.0377 µM and 0.0293 µM | 0.216 µM and 0.125 µM | 4.97 µM and 2.06 µM | 13.6 µM | 2.77 µM and 1.77 µM | 9.33 µM | 6.47 µM | 21.9 µM | 0.654 µM and 0.223 µM | 13.2 µM | 0.469 µM and 0.376 µM | 8.48 µM |
| CNS(=O)(=O)OCC1OC(n2cnc3cncnc32)C(O)C1O (stereo not given) | > 100 µM | > 100 µM | > 100 µM | > 100 µM | > 100 µM | > 100 µM | > 100 µM | > 100 µM | > 100 µM | > 100 µM | > 100 µM | > 100 µM | > 100 µM | > 100 µM | > 100 µM | > 100 µM | > 100 µM | > 100 µM | > 100 µM | > 100 µM |
| O=c1cc(-c2ccccc2)[nH]c2ncccc12 | – | > 100 µM | – | 0.426 µM | – | > 100 µM | – | > 100 µM | – | > 100 µM | – | 0.702 µM | – | > 100 µM | – | > 100 µM | – | > 27.9 µM | – | > 100 µM |
| CCCCCCC1N=C(N)N=C(N)N1c1cccc(Cl)c1 (stereo not given) | 0.436 µM | 10.9 µM | 0.0514 µM | 7.23 µM | 0.199 µM | 5.88 µM | 0.841 µM | 24.6 µM | 0.668 µM | 15.5 µM | 0.701 µM | 14.1 µM | 0.863 µM | 10.5 µM | 1.76 µM | 38.2 µM | 0.0576 µM | 16 µM | 2.34 µM | 17.4 µM |
| Cc1cc(Cl)nc2ccc(Cc3ccc4nc(Cl)cc(C)c4c3)cc12 | – | 96.9 µM | – | > 100 µM | – | > 100 µM | – | > 100 µM | – | > 100 µM | – | > 100 µM | – | > 100 µM | – | > 100 µM | – | > 100 µM | – | > 100 µM |
| CNC(=O)c1nn(C)c2c1C(C)(C)Cc1cnc(Nc3cccc(N4CCN(C)CC4)c3)nc1-2 | 0.44 µM | 17.9 µM | 0.524 µM | > 35 µM | 0.166 µM | 11.6 µM | 0.443 µM | > 50 µM | 0.204 µM | 11.8 µM | 0.554 µM | 11.1 µM | 0.505 µM | 13.4 µM | 0.409 µM | 44.3 µM | 0.189 µM | 7.24 µM | 1.32 µM | 13.1 µM |
| C/C(=N\NC(=S)N1CCN(c2ccccn2)CC1)c1ccccn1 | 0.0475 µM | 12.7 µM | < 0.0192 µM | 16 µM | – | 15 µM | – | 0.0341 µM | 0.0852 µM | 8.06 µM | 0.179 µM | 0.71 µM and 2.07 µM | – | 14.2 µM | 1.08 µM | 12.6 µM | – | 15.1 µM | – | 19.3 µM |
| NC(=O)c1cccc2c(N[C@H](CN3CCC3)c3ccc(Cl)c(C(F)(F)F)c3)ncnc12 | 0.964 µM | 14.5 µM | 0.981 µM | 12.1 µM | 0.0989 µM | 2.63 µM | 2.53 µM | 10.8 µM | 1.47 µM | 3.69 µM | 5.1 µM | 20.3 µM | 3.3 µM | 16.2 µM | 3.26 µM | 16.6 µM | 0.638 µM | 12.8 µM | 1.18 µM | 4.13 µM |
| CN(C)C1CCN(Cc2ccc(NC(=O)c3cncc(C#Cc4cnc(N)c5ncccc45)c3)cc2C(F)(F)F)CC1 | 9.34 µM | 26.4 µM | 1.3 µM | 6.82 µM | 9.48 µM | 19.9 µM | 0.0158 µM | 1.02 µM | 0.962 µM | 1.87 µM | 9.86 µM | 26.5 µM | 9.3 µM | 17.6 µM | 1.9 µM | 9.24 µM | 7.42 µM | 15.5 µM | 0.912 µM | 1.74 µM |
| CS(=O)(=O)N1CCC(n2c(=O)c(Oc3ccc(F)cc3F)cc3cnc(NC4CCOCC4)nc32)CC1 | > 25 µM | > 25 µM | > 25 µM | > 25 µM | > 25 µM | > 25 µM | > 25 µM | > 25 µM | > 25 µM | > 25 µM | > 25 µM | > 25 µM | > 25 µM | > 25 µM | > 25 µM | > 25 µM | > 25 µM | > 25 µM | > 25 µM | > 25 µM |
| COc1cc(-c2cc3ncccc3c3nc(OCCN(C)C)c4cccnc4c23)cc(OC)c1OC | 0.75 µM | 3 µM | 0.383 µM | > 100 µM | 0.466 µM | 1.99 µM | 0.339 µM | 4.63 µM | 0.485 µM | 10.4 µM | 0.457 µM | 2.78 µM | 0.64 µM | 3.09 µM | 0.418 µM | 2.52 µM | 0.731 µM | > 100 µM | 0.639 µM | 2.42 µM |
